# Patent publication US10940188B2, “Compounds and methods for treatment and prevention of Flavivirus infection” (priority 2016, dated 2021)
# Assays:
# [1] = tested on: human forebrain-specific organoids infected by FSS13025; assay: Immunostaining of ZIKV-infected forebrain-specific organoids for cleaved caspase-3 and ZIKVE; format: cell-based; details: FSS13025 infection, 10 days
# Excerpt: FIGS. 1A-1, 1A-2, 1A-3, 1B-1, 1B-2, 1C-1, and 1C-2. Emricasan suppresses cell death of ZIKV-infected human astrocytes and hNPCs in 2D monolayer cultures and 3D brain organoids. Emricasan (FIG. 1A-1) inhibits caspase-3 activity and improves cell viability in human astrocytes infected with three different strains of ZIKV in a concentration dependent manner. Value represent mean±s.d. (n=3). The curves (FIGS. 1A-2 and 1A-3) represent best fit. (FIG. 1B) Sample images of immunostaining (FIG. 1B-1) of forebrain-specific hNPCs for ZIKV envelop protein (ZIKVE; green) and cleaved-caspase 3 (Cas3; red) and DAPI (gray) 72 hours after ZIKV FSS-13025 infection (MOI=0.04-0.08; Scale bar: 20 μm), and quantification (FIG. 1B-2). Values represent mean±s.e.m. (n=3; **P<0.01; Student's t-test). Sample images (FIG. 1C-1) of immunostaining of day 28 human forebrain-specific organoids for ZIKVE (green) and Cas3 (red) and DAPI (gray) 10 days after ZIKV FSS-13025 infection (Scale bar: 100 μm), and quantification (FIG. 1C-2). Values represent mean±s.e.m. (n=6; ***P<0.001; Student's t-test).
# Forebrain-specific organoids were generated from the C2-1 human iPSC line as previously described. Briefly, human iPSC colonies were detached 7 days after passage with Collagenase Type IV, washed with fresh stem cell medium and cultured in a 15 ml conical tube. […]
# [2] = oral, BID, ×4 days, cited from earlier work
# [3] = tested on: liver injury and fibrosis; details: murine NASH model; cited from earlier work
# activated caspases = details: in vitro; cited from earlier work
# [4] = tested on: hNPCs infected with ZIKV PRVABC59; assay: hNPC proliferation after ZIKV infection (EdU); format: cell-based, human; details: PHA-690509 1 μM, Seliciclib 5 μM
# Experimental: FIGS. 17A-17C. Analysis of potential toxicity of CDKis on human astrocyte viability and hNPC proliferation. Human iPSC-derived astrocytes (BJ line) were treated with each indicated compound (cpd) for 25 hours prior to cell viability analysis as measured in relative luciferase units for ATP production. Values represent mean+s.d. (n=3 cultures; ***P<0.001; **P<0.01; One-way ANOVA for comparison with the DMSO treatment). RLU: relative luminescence units. hNPCs were treated with saline, PHA-690509 (PHA, 1 μM) or Seliciclib (5 μM), 1 hour prior to ZIKV PRVABC59 infection (MOI=0.08). At 72 hours post infection, EdU (10 μM) was added to hNPCs and cells were cultured for additional 4 hours prior to fixation and staining for EdU and DAPI. Values represent mean+s.e.m. (n=3 cultures; ***P<0.001; One-way ANOVA for comparison with the mock treatment). Day 20 forebrain-specific brain organoids were treated with PHA-690509 (1 μM) or Seliciclib (5 μM) for 3 days and hNPC proliferation was evaluated by phospho-Histone 3 (PH3) expression within the ventricular zone. Values represent mean+s.e.m. (n=8 organoids; P>0.05; One-way ANOVA for comparison with the mock treatment).
# HEK293 cells = assay: Toxicity IC50 (cell-killing activity) of the NS1 TR-FRET screen; format: cell-based, human; details: cell-killing activity
smiles,measurement,setting,value
C[C@H](NC(=O)C(=O)Nc1ccccc1C(C)(C)C)C(=O)N[C@@H](CC(=O)O)C(=O)COc1c(F)c(F)cc(F)c1F [Emricasan],"number of cleaved caspase-3-expressing hNPCs, 3D organoid cultures",[1],reduced the number of active (cleaved) caspase-3-expressing forebrain-specific hNPCs
same,maximum (Cmax) concentration in human blood,[2],2360 ng/mL
same,Cmax,"[2]; read-out: maximum (Cmax) concentration in human blood, value in brackets",4.15 µM
same,liver injury and fibrosis,[3],reduces liver injury and fibrosis
same,activity against activated caspases,activated caspases,sub- to nano-molar activity
CC(=O)Nc1ccc([C@H](C)C(=O)Nc2ncc(C(C)C)s2)cc1 [PHA-690509],rescue of ZIKV-induced reduction of hNPC proliferation,[4],partially rescued ZIKV-induced reduction of hNPC proliferation
CC[C@H]1CN2CCc3cc(OC)c(OC)cc3[C@@H]2C[C@@H]1C[C@H]1NCCc2cc(OC)c(OC)cc21 [Emetine],Tox IC50,HEK293 cells,No
